According to ChEMBL document CHEMBL3860046, “Increasing metabolic stability via the deuterium kinetic isotope effect: An example from a proline-amide-urea aminothiazole series of phosphatidylinositol-3 kinase alpha inhibitors” (Bioorg Med Chem Lett, 2016):
Active and inactive are the calls of the source. No cut-off for these calls is given here.

Assays:
[1] = Drug level in human liver microsomes treated with (S)-N1-(5-(2-tert-butylpyrimidin-4-yl)-4-methylthiazol-2-yl)pyrrolidine-1,2-dicarboxamide at 5 uM measured after 1 hr in presence of alamethicin,uridine 5'-diphospho-glucuronic acid,glutathione,NADPH by capillary-HPLC/MS analysis; assay type: ADME
[2] = (§1) Drug level in rat liver microsomes treated with (S)-N1-(5-(2-tert-butylpyrimidin-4-yl)-4-methylthiazol-2-yl)pyrrolidine-1,2-dicarboxamide at 5 uM measured after 1 hr in presence of alamethicin,uridine 5'-diphospho-glucuronic acid,glutathione,NADPH by capillary-HPLC/MS analysis; assay type: ADME
[3] = Drug level in rat hepatocytes treated with 1 uM (2S)-N1-[4-methyl-5-[2-[2,2,2-trideuterio-1,1-bis(trideuteriomethyl)ethyl]pyrimidin-4-yl]thiazol-2-yl]pyrrolidine-1,2-dicarboxamide measured after 40 to 60 mins by capillary-HPLC/MS analysis; assay type: ADME, cell-based, Hepatocyte
[4] = Drug level in human hepatocytes treated with 1 uM (2S)-N1-[4-methyl-5-[2-[2,2,2-trideuterio-1,1-bis(trideuteriomethyl)ethyl]pyrimidin-4-yl]thiazol-2-yl]pyrrolidine-1,2-dicarboxamide measured after 40 to 60 mins by capillary-HPLC/MS analysis; assay type: ADME, cell-based, Hepatocyte
[5] = as §1, with “measured immediately” for “measured”, “compound addition” for “1 hr”; assay type: ADME
[6] = Intrinsic clearance in human liver microsomes at 1 uM after 5 to 30 mins in presence of NADPH by LC-MS/MS analysis; assay type: ADME; conditions: read-out: CLH
[7] = Stability in rat liver microsomes assessed as compound remaining at 5 uM measured after 1 hr in presence of alamethicin,uridine 5'-diphospho-glucuronic acid,glutathione,NADPH by capillary-HPLC/MS analysis (reference value: 96.3 %); assay type: ADME; conditions: read-out: Stability
[8] = Dose normalized AUC in Sprague-Dawley rat at 3 mg/kg, po administered in cassette mode measured up to 48 hrs; assay type: ADME, organism-based; conditions: in vivo
[9] = Dose normalized Cmax in Sprague-Dawley rat at 1 mg/kg, iv or 3 mg/kg, po administered in cassette mode; assay type: ADME, organism-based; conditions: in vivo
[10] = Volume of distribution at steady state in Sprague-Dawley rat at 1 mg/kg, iv or 3 mg/kg, po administered in cassette mode measured up to 48 hrs; assay type: ADME, organism-based; conditions: in vivo, read-out: Vdss
[11] = Antitumor activity in Rat1 cells expressing myr-p110alpha xenografted in Harlan nude mouse assessed as tumor regression at 100 mg/kg, po qd administered for 8 days measured post last dose; assay type: functional, Rattus norvegicus
[12] = Stability in rat liver microsomes assessed as compound remaining at 5 uM measured immediately after compound addition in presence of alamethicin,uridine 5'-diphospho-glucuronic acid,glutathione,NADPH by capillary-HPLC/MS analysis (reference value: 96.3 %); assay type: ADME; conditions: read-out: Stability
[13] = Oral bioavailability in Sprague-Dawley rat at 3 mg/kg administered in cassette mode measured up to 48 hrs; assay type: ADME, organism-based; conditions: in vivo
Mus musculus [14] = organism: Mus musculus; conditions: Harlan, Rat1, 50 mg/kg
[15] = Dose normalized AUC in Sprague-Dawley rat at 1 mg/kg, iv administered in cassette mode measured up to 48 hrs; assay type: ADME, organism-based; conditions: in vivo
[16] = Intrinsic clearance in rat liver microsomes at 1 uM after 5 to 30 mins in presence of NADPH by LC-MS/MS analysis; assay type: ADME; conditions: read-out: CLH
[17] = Intrinsic clearance in mouse liver microsomes at 1 uM after 5 to 30 mins in presence of NADPH by LC-MS/MS analysis; assay type: ADME; conditions: read-out: CLH
[18] = Stability in Sprague-Dawley rat blood assessed as compound remaining at 3 mg/kg, po administered in cassette mode measured after 1 hr by capillary-HPLC/MS analysis; assay type: ADME, organism-based; conditions: whole blood, read-out: Stability
[19] = Stability in human liver microsomes assessed as compound remaining at 5 uM measured after 1 hr in presence of alamethicin,uridine 5'-diphospho-glucuronic acid,glutathione,NADPH by capillary-HPLC/MS analysis (reference value: 96.3 %); assay type: ADME; conditions: read-out: Stability
[20] = AUC (0 to 24 hrs) in Harlan nude mouse plasma xenografted with Rat1 cells expressing myr-p110alpha at 100 mg/kg, po qd administered for 8 days measured post last dose; assay type: ADME, organism-based; design: dose 100 mg/kg, time < 24 hr, route oral
[21] = Terminal half life in Sprague-Dawley rat at 3 mg/kg, po administered in cassette mode; assay type: ADME, organism-based; conditions: in vivo, read-out: beta t1/2 (converted)
Mus musculus [22] = organism: Mus musculus; conditions: Harlan, Rat1, 50 mg/kg; remark: listed apart in the source
[23] = AUC (0 to 24 hrs) in Harlan nude mouse plasma xenografted with Rat1 cells expressing myr-p110alpha at 150 mg/kg, po qd administered for 8 days measured post last dose; assay type: ADME, organism-based; design: time < 24 hr, dose 150 mg/kg, route oral
[24] = Stability in Sprague-Dawley rat blood assessed as compound remaining at 1 mg/kg, iv administered in cassette mode measured after 1 hr by capillary-HPLC/MS analysis; assay type: ADME, organism-based; conditions: whole blood, read-out: Stability
[25] = AUC (0 to 24 hrs) in Harlan nude mouse plasma xenografted with Rat1 cells expressing myr-p110alpha at 50 mg/kg, po qd administered for 8 days measured post last dose; assay type: ADME, organism-based; design: time < 24 hr, dose 50 mg/kg, route oral
[26] = Tmax in Sprague-Dawley rat at 1 mg/kg, iv or 3 mg/kg, po administered in cassette mode; assay type: ADME, organism-based; conditions: in vivo
[27] = Stability in Sprague-Dawley rat blood assessed as compound remaining at 1 mg/kg, iv administered in cassette mode measured after 0.5 hrs by capillary-HPLC/MS analysis; assay type: ADME, organism-based; conditions: whole blood, read-out: Stability
[28] = Stability in Sprague-Dawley rat blood assessed as compound remaining at 3 mg/kg, po administered in cassette mode measured after 0.5 hrs by capillary-HPLC/MS analysis; assay type: ADME, organism-based; conditions: whole blood, read-out: Stability
[29] = Antitumor activity in Rat1 cells expressing myr-p110alpha xenografted in Harlan nude mouse assessed as tumor regression at 150 mg/kg, po qd administered for 8 days measured post last dose; assay type: functional, Rattus norvegicus
[30] = Stability in human hepatocytes assessed as compound remaining at 1 uM measured after 40 to 60 mins by capillary-HPLC/MS analysis; assay type: ADME, cell-based, Hepatocyte; conditions: read-out: Stability
[31] = Clearance in Sprague-Dawley rat at 1 mg/kg, iv administered in cassette mode measured up to 48 hrs; assay type: ADME, organism-based; conditions: in vivo
[32] = Antitumor activity in Rat1 cells expressing myr-p110alpha xenografted in Harlan nude mouse assessed as tumor regression at 25 mg/kg, po qd administered for 8 days measured post last dose; assay type: functional, Rattus norvegicus
[33] = Antitumor activity in Rat1 cells expressing myr-p110alpha xenografted in Harlan nude mouse assessed as tumor regression at 50 mg/kg, po qd administered for 8 days measured post last dose; assay type: functional, Rattus norvegicus
[34] = Stability in rat hepatocytes assessed as compound remaining at 1 uM measured after 40 to 60 mins by capillary-HPLC/MS analysis; assay type: ADME, cell-based, Hepatocyte; conditions: read-out: Stability

SMILES	Drug metabolism [1]	Drug metabolism [2]	Drug metabolism [3]	Drug metabolism [4]	microsomal CLint at 1 µM [6]	AUC/dose [8]	Cmax/dose [9]	Vd [10]	bioavailability [13]	AUC/dose [15]	microsomal CLint at 1 µM [16]	microsomal CLint at 1 µM [17]	remaining at 1 h [18]	half-life [21]	remaining at 1 h [24]	Tmax [26]	remaining at 0.5 h [27]	remaining at 0.5 h [28]	further results
[2H]C([2H])([2H])C(c1nccc(-c2sc(NC(=O)N3CCC[C@H]3C(N)=O)nc2C)n1)(C([2H])([2H])[2H])C([2H])([2H])O			Metabolite_Detected	Metabolite_Detected															
Cc1nc(NC(=O)N2CCC[C@H]2C(=O)O)sc1-c1ccnc(C(C)(C)C)n1	Metabolite_Detected	Metabolite_Detected																	Drug metabolism [5]: Metabolite_Detected
[2H]C([2H])([2H])C(c1nccc(-c2sc(NC(=O)N3CCC[C@H]3C(N)=O)nc2C)n1)(C([2H])([2H])[2H])C([2H])([2H])[2H]					19 µL/min/mg	1490 nM·kg·h/mg	270 nM	1.4 L/kg	54%	2750 nM·kg·h/mg	22 µL/min/mg	19 µL/min/mg	91%	90 min	95%	18 min	95%	91%	remaining at 1 µM [30]: 96.2%; clearance [31]: 16 mL/min/kg; Activity [32]: 24%; Activity [33]: 63%; remaining at 1 µM [34]: 94.5%

Now from value to molecule, other results behind:

Drug metabolism [1]	Drug metabolism [2]	Drug metabolism [3]	Drug metabolism [4]	microsomal CLint at 1 µM [6]	AUC/dose [8]	Cmax/dose [9]	Vd [10]	bioavailability [13]	AUC/dose [15]	microsomal CLint at 1 µM [16]	microsomal CLint at 1 µM [17]	remaining at 1 h [18]	half-life [21]	remaining at 1 h [24]	Tmax [26]	remaining at 0.5 h [27]	remaining at 0.5 h [28]	SMILES	further results
Metabolite_Detected	Metabolite_Detected																	Cc1nc(NC(=O)N2CCC[C@H]2C(N)=O)sc1-c1ccnc(C(C)(C)CO)n1	
				32 µL/min/mg	527 nM·kg·h/mg	180 nM	1.2 L/kg	26%	2010 nM·kg·h/mg	55 µL/min/mg	35 µL/min/mg	73%	72 min	86%	18 min	90%	74%	Cc1nc(NC(=O)N2CCC[C@H]2C(N)=O)sc1-c1ccnc(C(C)(C)C)n1	remaining at 1 h, 5 µM [7]: 87.2%; Activity [11]: 10%; remaining at 0 min, 5 µM [12]: 98.9%; inhibition (Mus musculus [14]): Active; remaining at 1 h, 5 µM [19]: 90.8%; AUC at 24 h [20]: 134 µM·h; inhibition (Mus musculus [22]): Active; AUC at 24 h [23]: 383 µM·h; AUC at 24 h [25]: 65 µM·h; Activity [29]: 51%
		Metabolite_Detected	Metabolite_Detected															[2H]C([2H])([2H])C(c1nccc(-c2sc(NC(=O)N3CCC[C@H]3C(=O)O)nc2C)n1)(C([2H])([2H])[2H])C([2H])([2H])[2H]	
